The METLIN SMRT retention time set (Domingo-Almenara et al. 2019)

Assay: gradient 5% acetonitrile 3 min, to 50% in 2 min, to 85% in 15 min, held 3 min, 100 µL/min
Settings: column: Zorbax Extend-C18 2.1 x 50 mm; eluents: water / acetonitrile, 0.1% formic acid
Method in brief: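 A Zorbax Extend-C18 column (2.1 × 50 mm, 1.8 μm) run at 100 μL/min with water and acetonitrile, both containing 0.1% formic acid, separated mixtures of ~100 pure standards. The HPLC was coupled to a quadrupole time-of-flight mass spectrometer operated in positive and negative ionization mode, with dead and dwell volumes of 40 μL and 900 μL. Each retention time was taken from a computationally picked adduct peak that was then manually inspected.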

Row | RP-LC retention time | Structure (SMILES)
1 | 821 s | C[C@H]1CN(C(=O)c2ccc3ccccc3n2)C[C@@H]1c1nc(-c2cccnc2)no1
2 | 750 s | O=C(C1=CN(c2ccc3c(c2)OCCO3)c2cc(F)ccc2S1(=O)=O)N1CCOCC1
3 | 603 s | NC(=O)C1CCN(C(=O)c2nnn(-c3ccccc3Cl)c2-c2ccncc2)CC1
4 | 838 s | O=C(NC1CCCCCCC1)C1CCN(S(=O)(=O)c2cc(C(=O)N3CCOCC3)cs2)CC1
5 | 1290 s | CCn1c(C(=O)NC2CCCCCC2)cc2sc(Cl)cc21
6 | 994 s | O=C(NCc1ccccc1F)c1cc(N2CCCC2)n2nccc2n1
7 | 864 s | Cc1c(C(=O)N2CCCC2)cnn1-c1cc(-c2nc(C3CC3)no2)ccn1
8 | 1310 s | Cc1cc(Cl)ccc1OCC(=O)Nc1nc(-c2cccc3ccccc23)cs1
9 | 577 s | O=C1CCCCC(CNC(=O)c2cnccn2)N1 (centres undefined)
10 | 562 s | CN(C)C[C@@H]1CN(Cc2ccccc2)C[C@H]1NS(=O)(=O)c1ccc(C#N)cc1
11 | 926 s | O=C(CCN1C(=O)C2C3C=CC(C3)C2C1=O)Nc1nc(-c2ccccc2)cs1 (centres undefined)
12 | 698 s | Cn1c(=O)c(-c2ccc(C(=O)N3CCOCC3)cc2)nc2ccccc21
13 | 590 s | O=C(Nc1nnc2n1CCS2)c1ccc2c(c1)OCO2
14 | 678 s | Cc1csc(-c2ccc(CNC(=O)C3CCOC3)cc2)n1 (centres undefined)
15 | 1020 s | CCOC(=O)c1cc(S(=O)(=O)N2CCCC2C(=O)N2CCC(Cc3ccccc3)CC2)cn1C (centres undefined)
16 | 595 s | Nc1cccc(-c2nccnc2N2CCCC2)c1
17 | 787 s | Cc1cc(C)n(-c2ccccc2Cl)c(=O)c1C(=O)O
18 | 670 s | CCOC(=O)c1[nH]c(C)c(CCC(=O)N2CCC(C(=O)NCC3CCCO3)CC2)c1C (centres undefined)
19 | 1010 s | COc1ccc(-c2nnc(COc3cccc(NC(=O)C(NC(=O)c4ccco4)C(C)C)c3)o2)cc1 (centres undefined)
20 | 674 s | Cn1c(=O)c(N2CCCC(C(=O)N3CCN(Cc4ccc5c(c4)OCO5)CC3)C2)nc2ccccc21 (centres undefined)
21 | 1040 s | COc1ccc(-c2oc3c(CC=C(C)C)c(O)cc(O)c3c(=O)c2O)cc1
22 | 800 s | Nc1nc(-c2ccccc2)nn1C(=O)C1CC1

Row | RP-LC retention time | Structure (SMILES)
23 | 1240 s | CN(C)c1ccc(/C=C2\C=Cc3ccccc32)cc1
24 | 935 s | CCS(=O)(=O)N1CC(=O)N(c2cc(C)cc(C)c2)C(C)(C(=O)NC2CCCCCC2)C1 (centres undefined)
25 | 1190 s | Cc1ccc(-c2nnc(-c3ccc(Br)cc3)o2)cc1S(=O)(=O)N1CCCC1
26 | 1100 s | Cc1cc(C)c(S(=O)(=O)Nc2cccc(C(F)(F)F)c2)c(C)c1
27 | 1030 s | O=C(Nc1ccc2c(c1)OCCO2)C1CCCN(c2nccnc2Sc2ccccc2)C1 (centres undefined)
28 | 1070 s | COc1ccccc1-c1noc(Cn2ccn3nc(-c4cccc5ccccc45)cc3c2=O)n1
29 | 860 s | Cc1ccc(C)c(N2CCN(c3ccnc(SCC(=O)Nc4ccccc4)n3)CC2)c1
30 | 733 s | CCn1c(C(=O)N2CCCC(C(=O)NCCc3ccc(S(N)(=O)=O)cc3)C2)cc2sccc21 (centres undefined)
31 | 714 s | CCCn1ncc(N2CCC(C(=O)NCCc3cccs3)CC2)cc1=O
32 | 718 s | O=C(Cc1ccsc1)N1CCC[C@H]1c1nc(-c2ccccc2)n[nH]1
33 | 1090 s | COc1ccc(-n2ncc3c(=O)n(Cc4nc(-c5ccc(Cl)c(F)c5)no4)cnc32)cc1
34 | 872 s | CCOc1ccccc1NC(=O)N1CCC2(CC1)NC(=O)c1cc(C)ccc1N2C
35 | 914 s | CCc1nn2c(CNC(=O)c3ccc(F)cc3)c(-c3ccccc3)nc2s1
36 | 595 s | Cc1ccc(CN2CCC(C(=O)N3CCCCCCNC(=O)CC3)CC2)s1
37 | 664 s | O=C(O)c1cn(-c2ccc(F)c(F)c2)nn1
38 | 793 s | Cn1cccc1C(=O)C(=O)NCc1ccc2c(c1)OCO2
39 | 638 s | O=c1c2cc(-c3ccc(F)cc3)nn2ccn1Cc1noc(CN2CCCC2)n1
40 | 859 s | COc1ccc(S(=O)(=O)N2CCCC(C(=O)N(C)Cc3ccccc3)C2)cc1OC (centres undefined)
41 | 568 s | Cn1cc(CN2CCC(C(=O)NCCN3CCOCC3)CC2)c2cc(Cl)ccc21
42 | 570 s | COc1ccc(CCC(=O)NCCCN2CCOC(c3ccccc3)C2)cc1 (centres undefined)
43 | 1190 s | Cn1c(=O)oc2cc(-c3noc(-c4cccc(Br)c4)n3)ccc21
44 | 1120 s | CCSc1nc2ccc(NS(=O)(=O)c3ccc(CC)cc3)cc2s1

Row | RP-LC retention time | Structure (SMILES)
45 | 731 s | O=C1CCCN1Cc1noc(-c2ccccc2)n1
46 | 846 s | CCOCCCNC(=O)COc1nc(C)nc2onc(-c3ccccc3)c12
47 | 730 s | COc1ccc(CC(=O)Nc2nc3ccc(S(=O)(=O)NC(C)C)cc3s2)cc1OC
48 | 987 s | CCC(C(=O)N1CCN(c2cc(-c3ccc(Cl)cc3)[nH]n2)CC1)c1ccccc1 (centres undefined)
49 | 801 s | CNC(=O)C1CCN(c2nc3ccc(-c4cccc(OC)c4)nc3s2)CC1
50 | 1060 s | Cc1cc(C)cc(-c2nc(C3CC(=O)N(c4ccc(F)cc4)C3)no2)c1 (centres undefined)
51 | 890 s | Cc1ccc(CNC(=O)N2CCCC(C)(C(=O)NCc3ccc(F)cc3)C2)cc1 (centres undefined)
52 | 1270 s | COc1ccc(C2Cn3nnc(-c4nc(-c5ccc(C)c(C)c5)no4)c3CO2)cc1 (centres undefined)
53 | 1260 s | CCOC(=O)c1c(C)oc2ncnc(Nc3cc(C)ccc3OC)c12
54 | 822 s | CC1(C(=O)NCc2ccc3c(c2)OCO3)CCN(C(=O)c2ccccc2C(F)(F)F)CC1
55 | 677 s | O=C(Nc1cc(F)ccc1F)Nc1c(-c2ccccc2)nc2ccccn12
56 | 826 s | Cc1cccc(Cn2c(=O)n(CCNC(=O)c3cccn3C)c3ncccc32)c1
57 | 996 s | C[C@H]1CN(C(=O)c2ccc(F)cc2)C[C@@H]1c1nc(-c2ccccc2)no1
58 | 645 s | COc1ccccc1N1CCN(c2ncnc3c2CCC3)CC1
59 | 732 s | O=C(Nc1nccs1)C1CCN(C(=O)c2cc(-c3ccccc3)on2)CC1
60 | 1100 s | O=c1c2sccc2n(Cc2nc(-c3ccc(Br)cc3)no2)c(=O)n1-c1ccc(F)cc1
61 | 792 s | Cc1cccn2cc(-c3cccc(NS(=O)(=O)c4ccc(C(C)(C)C)cc4)c3)nc12
62 | 625 s | CCN(CC)CCNC(=O)CN1N=C(c2ccc(Cl)cc2)CCC1=O
63 | 1110 s | Cc1cc(C)c(C)c(S(=O)(=O)N2CCC(OCc3noc(C4CCCO4)n3)CC2)c1C (centres undefined)
64 | 1010 s | CC(C)c1cccc(N2C=C(C(=O)N3CCCCC3)S(=O)(=O)c3ccccc32)c1
65 | 828 s | CCOC(=O)c1ccc(NC(=O)CSc2cc(N3CCCC3)ncn2)cc1
66 | 716 s | Cc1ccc(-n2ncc3c(C)nnc(SCC(=O)N4CCC(C)CC4)c32)cc1C

Row | RP-LC retention time | Structure (SMILES)
67 | 779 s | C=CCn1c(C)c(CC(=O)NCC(C)C)c(=O)n2nc(-c3ccccc3)nc12
68 | 953 s | C=CCN1C(=O)COc2ccc(-c3csc(NC(=O)CCCC)n3)cc21
69 | 656 s | O=C(NCC1CCCO1)C1CCCN(c2ncnc3c2oc2ccccc23)C1 (centres undefined)
70 | 751 s | Cc1ccc(S(=O)(=O)NC(=O)Nc2nccs2)cc1
71 | 975 s | O=C(NCc1ccc(-c2nc(-c3ccc(F)cc3)no2)s1)C1CCC1
72 | 1030 s | COc1ccc(NC(=O)N2c3ccccc3CC2c2nc(C3CC3)no2)c(OC)c1 (centres undefined)
73 | 744 s | Cc1cc(=O)n2nc(-c3ccc(Cl)cc3)nc2n1CC(=O)NC(C)C
74 | 863 s | Cc1ccc(C)c(S(=O)(=O)Nc2ccc(C(=O)Nc3ccccc3F)cc2)c1
75 | 1020 s | Cc1c(-c2ccccc2)n(O)[n+]([O-])c1-c1ccccc1
76 | 657 s | O=C(O)c1nnn(-c2cccc(Cl)c2)c1-c1ccncc1
77 | 1300 s | O=C(Nc1ccc(F)cc1Cl)c1c(O)c2cccnc2n(-c2ccc(F)cc2)c1=O
78 | 618 s | CC(C)Cc1nc(C2CN(C(=O)c3cnccn3)CC23CCCC3)no1 (centres undefined)
79 | 800 s | CCN1CCn2cc(S(=O)(=O)N3CCCc4ccccc43)cc2C1=O
80 | 863 s | COc1ccc(CNc2ncc(C(=O)O)c(C(C)C)n2)cc1OC
81 | 855 s | O=C(Cn1cccc(-c2nc(-c3ccc(Cl)cc3)no2)c1=O)N1CCCCC1
82 | 643 s | Cc1noc(C)c1S(=O)(=O)NCCOc1cc(N2CCOCC2)ncn1
83 | 1020 s | Cc1cccc(-c2noc(C3CCCN3C(=O)Nc3ccccc3F)n2)c1 (centres undefined)
84 | 722 s | O=C(CC1CCN(C(=O)Nc2ccc(F)cc2F)CC1)N1CCCCC1
85 | 702 s | CN1C(=O)CCc2cc(NC(=O)Cc3cccs3)ccc21

Row | Structure (SMILES) | RP-LC retention time
86 | CC(C)CN1Cc2ccccc2-n2ccnc2C12CCN(C(=O)c1ccco1)CC2 | 654 s
87 | CCn1cc(C(=O)Nc2ccc(C)cc2C)c2cccnc21 | 962 s
88 | CC(C)n1c(-c2cccc(C(=O)N3CCC4(CC3)OCCO4)c2)nc2cccnc21 | 693 s
89 | Cc1ccc(-n2cc(C3=CCN(CC(=O)N4CCN(c5ccccn5)CC4)CC3)cn2)cc1 | 584 s
